Data reported in patent publication EP3339292A1, “COCRYSTALS OF APREMILAST” (Zaklady Farmaceutyczne Polpharma SA, priority 2016, dated 2018).

Tests used:
Type in all cases: physicochemical
[1] = Dissolution studies (Ph. Eur. paddle method, tablets, HPLC analysis); conditions: buffer pH 6.8 + 0.3% SLS, result in words
Description: Dissolution studies were performed using a Hanson SR8PLUS dissolution apparatus, according to European Pharmacopoeia apparatus, paddle method. The samples were tested in 900mL pH 6.8 with 0.3% SLS at 37.0°C +/- 0.5°C and the paddle rotation speed was set at 75 rpm. Dissolution study was conducted for 60min and samples were analyzed using HPLC method.
• Injection Volume: 0.5, 0.2 µl; • Run Time: 15.0 minutes; • Column: Symmetry C18; 250x4,6mm; 5µm, Vial: 1:A,1, 1:c,7, 1:c,8; • Mobile phase: gradient: acetonitrile : buffer (1 vol. TEA and 150 vol. 2,7g/l KH2PO4, pH2,0 adjust with H3PO4); • Column temp: 25°C; and • Flow: 1 ml/min.

[2] = Moisture sorption analysis (Dynamic Vapour Sorption, DVS); conditions: result in words
Description: Water Vapour Sorption isotherms were obtained using a Dynamic Vapour Sorption apparatus (model: DVS - Advantage, supplier: Surface Measurement Systems Limited). The DVS apparatus consists of an ultra-microbalance housed inside a temperature-controlled cabinet. The sample was placed into a DVS sample pan under a stream of nitrogen (200 sccm) at 25°C. The humidity was increased ramping in 10% RH (relative humidity) steps from close to 0% RH to 90% RH (sorption phase). Next the humidity was decreased in a similar fashion for the desorption phase. The sample was held at each RH step for mass stabilization (dm/dt 0.02 %/min) but not less than 10 minutes. Two cycles of sorption and desorption were investigated.

Solubility of cocrystal = conditions: RT

Row | dissolution profile compared to prior art Form B of Apremilast ([1]; listed as cocrystal of Apremilast with 4-hydroxybenzoic acid) | dissolution profile compared to prior art Form B of Apremilast ([1]; listed as cocrystals of Apremilast with 4-hydroxybenzoic acid) | hygroscopicity [2] | Solubility (Solubility of cocrystal) | dissolution profile compared to prior art Form B of Apremilast [1] | SMILES
1 | higher dissolution rate | superior dissolution profile | slightly hygroscopic | Solubility: 42.5µg/ml (RT) |  | CCOc1cc([C@@H](CS(C)(=O)=O)N2C(=O)c3cccc(NC(C)=O)c3C2=O)ccc1OC.O=C(O)c1ccc(O)cc1 [APM-4HB, Cocrystal of N-[2-[(1S)-1-(3-ethoxy-4-methoxyphenyl)-2-(methylsulfonyl)ethyl]-1,3-dioxo-2,3-dihydro-1H-isoindol-4-yl]acetamide and 4-hydroxybenzoic acid]
2 |  |  | slightly hygroscopic |  | higher dissolution rate | CCOc1cc([C@@H](CS(C)(=O)=O)N2C(=O)c3cccc(NC(C)=O)c3C2=O)ccc1OC.Cn1c(=O)c2c(ncn2C)n(C)c1=O [APM-CAF, Cocrystal of N-[2-[(1 S)-1-(3-ethoxy-4-methoxyphenyl)-2-(methylsulfonyl)ethyl]-1,3-dioxo-2,3-dihydro-1H-isoindol-4-yl]acetamide and 1,3,7-trimethylpurine-2,6-dione (caffeine)]
